According to ChEMBL document CHEMBL4507291 (2021):

Assays:
[1] = target: Rho-associated protein kinase 2 (Homo sapiens) (UniProt O75116); experiment: ROCK2 Kinase screen; details: Compound concentration 1.0 uM
[2] = target: 5-hydroxytryptamine receptor 2A (Homo sapiens) (UniProt P28223); details: Compound concentration 10.0 uM
[3] = target: Mitogen-activated protein kinase 14 (Homo sapiens) (UniProt Q16539); experiment: MAPK14 (p38 alpha) Kinase screen; details: Compound concentration 1.0 uM
[4] = target: Mitogen-activated protein kinase 10 (Homo sapiens) (UniProt P53779); experiment: MAPK10 (JNK3) Kinase screen; details: Compound concentration 1.0 uM
[5] = target: T1, Muscarinic acetylcholine receptor M4 (Homo sapiens) (UniProt P08173); details: Compound concentration 10.0 uM
T1 sequence (whole entry): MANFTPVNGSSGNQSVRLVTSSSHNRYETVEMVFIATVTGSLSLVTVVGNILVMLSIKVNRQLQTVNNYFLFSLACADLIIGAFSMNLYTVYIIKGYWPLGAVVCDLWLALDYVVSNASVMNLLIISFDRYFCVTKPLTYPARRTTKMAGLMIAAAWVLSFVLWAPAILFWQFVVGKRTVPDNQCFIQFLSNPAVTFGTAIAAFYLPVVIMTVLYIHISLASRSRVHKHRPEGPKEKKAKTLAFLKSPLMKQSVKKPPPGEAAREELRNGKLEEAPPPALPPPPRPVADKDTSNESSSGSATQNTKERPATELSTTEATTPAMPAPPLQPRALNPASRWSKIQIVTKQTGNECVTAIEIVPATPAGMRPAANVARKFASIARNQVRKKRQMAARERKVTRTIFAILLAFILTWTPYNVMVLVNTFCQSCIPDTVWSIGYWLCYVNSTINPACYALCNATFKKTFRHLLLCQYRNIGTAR

[6] = target: Protein kinase C alpha type (Homo sapiens) (UniProt P17252); experiment: PRKCA (PKC alpha) Kinase screen; details: Compound concentration 1.0 uM
[7] = target: T2, Ephrin type-B receptor 4 (Homo sapiens) (UniProt P54760); experiment: EPHB4 Kinase screen; details: Compound concentration 1.0 uM
T2 sequence (whole entry): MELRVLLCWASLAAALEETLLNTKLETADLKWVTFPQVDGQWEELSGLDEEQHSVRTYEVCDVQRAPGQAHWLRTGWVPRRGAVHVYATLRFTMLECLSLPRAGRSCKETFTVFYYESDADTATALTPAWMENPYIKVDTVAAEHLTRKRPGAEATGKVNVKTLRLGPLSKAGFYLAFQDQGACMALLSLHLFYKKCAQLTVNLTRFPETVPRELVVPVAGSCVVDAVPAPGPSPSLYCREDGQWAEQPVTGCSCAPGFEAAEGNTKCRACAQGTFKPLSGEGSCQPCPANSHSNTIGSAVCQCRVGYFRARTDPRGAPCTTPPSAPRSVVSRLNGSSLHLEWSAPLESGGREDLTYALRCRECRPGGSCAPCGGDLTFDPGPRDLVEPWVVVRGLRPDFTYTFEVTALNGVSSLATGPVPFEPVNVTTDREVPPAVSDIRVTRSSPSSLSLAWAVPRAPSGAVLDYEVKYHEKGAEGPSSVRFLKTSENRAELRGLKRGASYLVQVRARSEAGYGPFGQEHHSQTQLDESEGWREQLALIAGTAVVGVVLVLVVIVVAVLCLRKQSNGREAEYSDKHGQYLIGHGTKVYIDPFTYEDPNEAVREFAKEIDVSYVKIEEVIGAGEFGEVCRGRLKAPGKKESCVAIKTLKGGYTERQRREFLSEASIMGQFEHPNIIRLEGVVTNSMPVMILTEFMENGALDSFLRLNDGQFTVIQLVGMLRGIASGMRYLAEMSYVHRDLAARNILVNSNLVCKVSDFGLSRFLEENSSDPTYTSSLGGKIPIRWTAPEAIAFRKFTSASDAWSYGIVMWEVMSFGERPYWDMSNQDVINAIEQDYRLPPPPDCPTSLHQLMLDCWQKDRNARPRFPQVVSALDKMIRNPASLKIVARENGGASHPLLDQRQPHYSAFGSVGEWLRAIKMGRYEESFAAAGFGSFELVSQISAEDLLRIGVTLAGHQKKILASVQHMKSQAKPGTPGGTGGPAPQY

[8] = target: Corticotropin-releasing factor receptor 1 (Homo sapiens) (UniProt P34998); experiment: Corticotropin Releasing Factor CRF1 Eurofins-Panlabs radioligand binding assay; details: Compound concentration 10.0 uM
[9] = target: Tyrosine-protein kinase Fyn (Homo sapiens) (UniProt P06241); experiment: FYN Kinase screen; details: Compound concentration 1.0 uM
[10] = target: Serine/threonine-protein kinase Nek7 (Homo sapiens) (UniProt Q8TDX7); experiment: NEK7 Kinase screen; details: Compound concentration 1.0 uM
[11] = target: Mitogen-activated protein kinase 14 (Homo sapiens) (UniProt Q16539); experiment: Inhibition of Protein Serine/Threonine Kinase, MAPK14 (p38α) at 10 µM in the Eurofins-Panlabs enzyme assay (Eurofins_assay_176610); parameters: substrate with concentration; details: Compound concentration 10.0 uM
[12] = target: Activated CDC42 kinase 1 (Homo sapiens) (UniProt Q07912); experiment: TNK2 (ACK) Kinase screen; details: Compound concentration 1.0 uM
[13] = target: Vasoactive intestinal polypeptide receptor 1 (Homo sapiens) (UniProt P32241); experiment: Inhibition of Vasoactive Intestinal Peptide VIP1 at 10 µM in the Eurofins-Panlabs radioligand binding assay (Eurofins_assay_287010); details: Compound concentration 10.0 uM
[14] = target: Serine/threonine-protein kinase 16 (Homo sapiens) (UniProt O75716); experiment: STK16 (PKL12) Kinase screen; details: Compound concentration 1.0 uM
[15] = target: PAS domain-containing serine/threonine-protein kinase (Homo sapiens) (UniProt Q96RG2); experiment: PASK Kinase screen; details: Compound concentration 1.0 uM
[16] = Inhibition of Atrial Natriuretic Factor (ANF) at 10 µM in the Eurofins-Panlabs radioligand binding assay (Eurofins_assay_211000); details: Cavia porcellus
[17] = target: Acetylcholinesterase (Homo sapiens) (UniProt P22303); details: Compound concentration 10.0 uM
Chain of Acetylcholinesterase (Homo sapiens) (P22303 whole entry): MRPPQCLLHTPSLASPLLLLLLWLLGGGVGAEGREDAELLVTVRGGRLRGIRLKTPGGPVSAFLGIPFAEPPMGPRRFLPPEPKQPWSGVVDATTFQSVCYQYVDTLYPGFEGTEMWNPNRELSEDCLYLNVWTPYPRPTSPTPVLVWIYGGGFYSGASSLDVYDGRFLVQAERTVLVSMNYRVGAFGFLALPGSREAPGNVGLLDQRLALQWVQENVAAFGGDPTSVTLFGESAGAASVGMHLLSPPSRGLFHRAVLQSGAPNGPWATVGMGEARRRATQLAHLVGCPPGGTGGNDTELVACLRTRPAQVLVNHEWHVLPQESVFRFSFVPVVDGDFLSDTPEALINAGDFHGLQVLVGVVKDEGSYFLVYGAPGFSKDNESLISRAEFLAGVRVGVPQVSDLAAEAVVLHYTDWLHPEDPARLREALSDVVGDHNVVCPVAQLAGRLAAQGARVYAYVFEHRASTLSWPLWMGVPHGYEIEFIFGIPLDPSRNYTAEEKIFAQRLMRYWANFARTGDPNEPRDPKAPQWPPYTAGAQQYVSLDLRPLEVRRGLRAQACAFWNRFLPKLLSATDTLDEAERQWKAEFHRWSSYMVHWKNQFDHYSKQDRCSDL

Chain of Mitogen-activated protein kinase 14 (Homo sapiens) (Q16539 whole entry): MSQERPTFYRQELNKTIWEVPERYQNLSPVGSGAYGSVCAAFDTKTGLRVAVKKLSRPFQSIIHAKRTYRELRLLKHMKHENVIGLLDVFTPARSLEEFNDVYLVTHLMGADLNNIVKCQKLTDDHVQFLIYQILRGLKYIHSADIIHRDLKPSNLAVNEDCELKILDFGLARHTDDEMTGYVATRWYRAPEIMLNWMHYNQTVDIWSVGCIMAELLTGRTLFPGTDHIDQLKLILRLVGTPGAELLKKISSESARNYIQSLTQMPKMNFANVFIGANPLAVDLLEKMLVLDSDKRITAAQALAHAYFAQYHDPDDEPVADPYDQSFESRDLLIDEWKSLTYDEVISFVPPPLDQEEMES
Chain of PAS domain-containing serine/threonine-protein kinase (Homo sapiens) (Q96RG2 whole entry, the tested form may be a part): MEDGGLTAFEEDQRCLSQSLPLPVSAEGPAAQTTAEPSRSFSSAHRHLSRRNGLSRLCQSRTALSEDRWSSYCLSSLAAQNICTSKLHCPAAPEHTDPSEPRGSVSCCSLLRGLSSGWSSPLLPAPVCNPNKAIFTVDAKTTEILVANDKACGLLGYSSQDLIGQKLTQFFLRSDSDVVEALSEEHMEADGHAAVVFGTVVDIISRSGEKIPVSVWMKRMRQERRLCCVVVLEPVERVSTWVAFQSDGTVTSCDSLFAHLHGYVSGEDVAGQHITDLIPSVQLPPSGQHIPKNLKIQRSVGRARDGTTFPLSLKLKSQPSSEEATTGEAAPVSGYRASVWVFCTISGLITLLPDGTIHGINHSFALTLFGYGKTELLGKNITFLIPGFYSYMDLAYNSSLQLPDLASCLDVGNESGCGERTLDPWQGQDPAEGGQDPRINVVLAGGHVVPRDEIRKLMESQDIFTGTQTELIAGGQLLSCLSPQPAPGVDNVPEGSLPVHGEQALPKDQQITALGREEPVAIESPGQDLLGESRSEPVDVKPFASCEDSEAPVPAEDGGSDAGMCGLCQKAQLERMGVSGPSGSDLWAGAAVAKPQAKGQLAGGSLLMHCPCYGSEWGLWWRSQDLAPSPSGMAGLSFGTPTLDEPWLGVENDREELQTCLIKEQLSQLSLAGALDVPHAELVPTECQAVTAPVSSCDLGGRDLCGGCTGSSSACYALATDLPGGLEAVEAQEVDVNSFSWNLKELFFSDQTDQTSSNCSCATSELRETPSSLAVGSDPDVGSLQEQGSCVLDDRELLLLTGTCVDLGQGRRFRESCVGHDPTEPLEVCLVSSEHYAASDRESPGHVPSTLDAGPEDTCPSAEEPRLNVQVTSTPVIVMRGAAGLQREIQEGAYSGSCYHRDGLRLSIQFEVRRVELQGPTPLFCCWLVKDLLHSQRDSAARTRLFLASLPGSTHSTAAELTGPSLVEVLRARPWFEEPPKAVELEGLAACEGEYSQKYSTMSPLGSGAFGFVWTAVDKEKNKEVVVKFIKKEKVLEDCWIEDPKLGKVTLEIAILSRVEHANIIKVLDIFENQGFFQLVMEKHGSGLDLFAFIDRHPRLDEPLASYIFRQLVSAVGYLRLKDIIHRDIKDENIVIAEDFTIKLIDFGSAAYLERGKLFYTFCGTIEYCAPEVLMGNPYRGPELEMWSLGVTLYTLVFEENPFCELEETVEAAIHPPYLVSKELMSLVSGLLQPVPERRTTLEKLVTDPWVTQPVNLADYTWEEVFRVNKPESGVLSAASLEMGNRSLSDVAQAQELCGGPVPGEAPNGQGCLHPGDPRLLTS
Chain of Tyrosine-protein kinase Fyn (Homo sapiens) (P06241 2-537 limits assumed): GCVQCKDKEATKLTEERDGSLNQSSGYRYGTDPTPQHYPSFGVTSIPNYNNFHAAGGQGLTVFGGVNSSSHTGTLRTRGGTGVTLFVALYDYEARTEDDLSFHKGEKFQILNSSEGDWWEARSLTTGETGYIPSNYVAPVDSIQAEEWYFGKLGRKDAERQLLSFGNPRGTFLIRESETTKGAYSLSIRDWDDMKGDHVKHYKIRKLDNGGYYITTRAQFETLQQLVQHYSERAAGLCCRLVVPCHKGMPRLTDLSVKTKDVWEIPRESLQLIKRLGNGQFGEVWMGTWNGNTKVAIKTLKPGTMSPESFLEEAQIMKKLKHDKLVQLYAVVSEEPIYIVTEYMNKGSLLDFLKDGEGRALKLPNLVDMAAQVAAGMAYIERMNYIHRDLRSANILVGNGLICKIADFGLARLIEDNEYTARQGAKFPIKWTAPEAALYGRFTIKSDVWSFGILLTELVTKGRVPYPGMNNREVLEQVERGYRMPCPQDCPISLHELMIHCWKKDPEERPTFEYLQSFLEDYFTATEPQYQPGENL
Chain of Rho-associated protein kinase 2 (Homo sapiens) (O75116 whole entry, looked up): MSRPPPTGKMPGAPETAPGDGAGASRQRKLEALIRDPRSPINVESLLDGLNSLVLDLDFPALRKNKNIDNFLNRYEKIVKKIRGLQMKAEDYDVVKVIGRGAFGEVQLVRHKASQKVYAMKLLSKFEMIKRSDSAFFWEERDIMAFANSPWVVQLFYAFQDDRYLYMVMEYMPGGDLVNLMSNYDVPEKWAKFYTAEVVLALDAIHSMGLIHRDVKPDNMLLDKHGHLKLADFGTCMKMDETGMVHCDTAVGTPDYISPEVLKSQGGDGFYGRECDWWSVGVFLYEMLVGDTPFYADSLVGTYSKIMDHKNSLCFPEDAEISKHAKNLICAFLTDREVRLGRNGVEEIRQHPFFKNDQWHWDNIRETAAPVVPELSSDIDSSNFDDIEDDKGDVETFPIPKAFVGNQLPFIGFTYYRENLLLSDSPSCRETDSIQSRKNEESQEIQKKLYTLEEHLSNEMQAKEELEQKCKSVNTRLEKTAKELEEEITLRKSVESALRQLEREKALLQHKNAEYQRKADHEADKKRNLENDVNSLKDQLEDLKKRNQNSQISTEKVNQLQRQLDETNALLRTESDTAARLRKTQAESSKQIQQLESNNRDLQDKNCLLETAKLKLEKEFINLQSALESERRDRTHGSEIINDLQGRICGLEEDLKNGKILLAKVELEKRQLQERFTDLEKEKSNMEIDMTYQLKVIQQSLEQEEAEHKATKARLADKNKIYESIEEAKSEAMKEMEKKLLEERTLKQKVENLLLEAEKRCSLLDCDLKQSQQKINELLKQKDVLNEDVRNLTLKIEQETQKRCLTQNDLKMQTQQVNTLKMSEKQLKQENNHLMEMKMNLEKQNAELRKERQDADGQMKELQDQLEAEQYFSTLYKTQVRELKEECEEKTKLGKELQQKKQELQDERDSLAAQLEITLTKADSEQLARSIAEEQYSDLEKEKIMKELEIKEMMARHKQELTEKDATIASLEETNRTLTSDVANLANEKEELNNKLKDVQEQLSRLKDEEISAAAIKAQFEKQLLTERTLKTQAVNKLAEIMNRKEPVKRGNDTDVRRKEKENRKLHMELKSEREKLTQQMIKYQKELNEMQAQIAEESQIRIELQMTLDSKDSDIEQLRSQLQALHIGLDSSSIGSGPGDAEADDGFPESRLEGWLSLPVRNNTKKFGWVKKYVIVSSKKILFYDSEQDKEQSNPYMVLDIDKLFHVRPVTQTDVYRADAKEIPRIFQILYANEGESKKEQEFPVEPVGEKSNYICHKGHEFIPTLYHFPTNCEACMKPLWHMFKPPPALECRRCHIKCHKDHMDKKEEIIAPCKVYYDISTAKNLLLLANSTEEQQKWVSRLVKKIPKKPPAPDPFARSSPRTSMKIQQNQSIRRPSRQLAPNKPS

## C[C@@H]1CN(c2cc(-c3n[nH]c4ccc(OC5(C)CC5)cc34)ncn2)C[C@H](C)O1 [MLi-2]
[1]
  inhibition: 10.2%
[2]
  inhibition: 6%
[3]
  inhibition: -6.52%
[4]
  inhibition: 13.6%
[5]
  inhibition: 26%
[6]
  inhibition: -4.08%
[7]
  inhibition: 2.23%
[8]
  inhibition: 6%
[9]
  inhibition: 11.2%
[10]
  inhibition: 3.68%
[11]
  inhibition: 19%
[12]
  inhibition: 22.9%
[13]
  inhibition: 3%
[14]
  inhibition: 2.58%
[15]
  inhibition: -0.0985%
[16]
  inhibition at 10 µM: -2% (not active)
[17]
  inhibition: -2%
